Each block holds one molecule with its values, some of them ahead of it.
Tests used:
Type in all cases: biochemical
[1] = system: red click beetle luciferase; test: Quenching phosphorescence from white luminometer plate, signal/background with red click beetle luciferase (Example IV); settings: relative to phosphorescence S/B before dye
Experimental: (§1) Stocks of Amaranth (Aldrich, 120561), Benzopurpurin 4B (Aldrich # 22882), and Fluorescence Brightener 28 (Aldrich 475300) were prepared in DMSO (Sigma) at 100 μM. Luminometer plates (96-well) were purchased from Dynex Technologies. The luminometer plates were broken into pieces that would fit into single luminometer tubes (12 mm diameter) purchased from Promega Corporation. All experiments were performed in a lab under normal fluorescent lighting.
(§2) The experiment measured the signal/background ratio before and after the addition of colored compounds or DMSO. Luminescence measurements were taken from the empty luminescent tube in each experiment to quantitate background. A piece of white luminescent plate, 100 μl of Bright-Glo™ Reagent prepared according to the manufacturer's instructions (Promega Corporation), and 100 μl of Glo Lysis Buffer (Promega Corporation) were placed into the luminescent tube, and the luminescence was again measured. […] 2 μl of DMSO or one of the dyes in DMSO were then added to the tube, the sample was mixed, and the luminescence was measured a third time. This measurement captured the amount of luminescence emitted through the now-colored reagent or the reagent containing the DMSO carrier. Finally, 2 μl of luciferase was added to the tube, the sample was mixed, and the luminescence measured a final time. […]

firefly luciferase [2] = test: Quenching phosphorescence from white luminometer plate, signal/background with firefly luciferase (Example IV); settings: relative to phosphorescence S/B before dye
Experimental: as §1, §2

firefly luciferase [3] = target: firefly luciferase (Photinus pyralis, UniProt P08659); test: Effect of quench reagents on firefly luciferase luminescent reaction (FIGS. 1-3); settings: luminescence normalized to value without the reagent
Sequence of firefly luciferase (Photinus pyralis, UniProt P08659) (P08659 whole entry): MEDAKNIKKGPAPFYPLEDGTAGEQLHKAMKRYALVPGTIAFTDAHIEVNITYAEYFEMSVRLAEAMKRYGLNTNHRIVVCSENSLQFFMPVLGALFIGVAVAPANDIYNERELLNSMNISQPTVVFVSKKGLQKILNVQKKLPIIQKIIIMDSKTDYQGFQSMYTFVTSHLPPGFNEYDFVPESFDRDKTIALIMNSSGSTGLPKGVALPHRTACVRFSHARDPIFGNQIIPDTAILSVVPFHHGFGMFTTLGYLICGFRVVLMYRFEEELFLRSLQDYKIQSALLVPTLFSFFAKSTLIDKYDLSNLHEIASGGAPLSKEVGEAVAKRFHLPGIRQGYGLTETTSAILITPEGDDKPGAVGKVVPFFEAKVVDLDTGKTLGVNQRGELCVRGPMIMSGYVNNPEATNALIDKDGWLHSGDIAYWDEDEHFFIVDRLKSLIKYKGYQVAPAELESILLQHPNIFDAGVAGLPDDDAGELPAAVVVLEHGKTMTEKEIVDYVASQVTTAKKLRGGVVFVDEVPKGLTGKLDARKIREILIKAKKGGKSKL
Experimental: To test the effect of coelenterazine hh methyl ether on a firefly luciferase luminescent reaction, a luciferase reagent was prepared (270 μM coenzyme A (Pharmacia), 530 μM ATP (Pharmacia), 20 mM Tricine pH 7.8 (Fisher), 1 mM magnesium carbonate (Sigma), 0.1 mM ETDA (Sigma), 2.7 mM magnesium sulfate (Sigma), and 33 mM dithiothreitol (Sigma)) with varying concentrations of beetle luciferin (Promega), both above and below the concentration required for luciferase saturation (940 μM, 470 μM, 235 μM and 117.5 μM, saturation occurs at about 470 μM). […] Luminescence from firefly luciferase was measured by adding 20 μl of firefly luciferase (5×10^−14 moles/reaction) (Promega Corp.) in 1× Cell Culture Lysis Reagent (Promega Corporation) containing 1 mg/ml bovine serum albumin (BSA) to 100 μl of the luciferase reagents. Luminescence was normalized to the value integrated in the absence of coelenterazine hh methyl ether.
To test the effect of Tergitol® NP-9 on the firefly luciferase luminescent reaction, Luciferase Assay Reagent (Promega Corporation) was prepared according to the manufacturer's instructions. […] Luminescence was integrated after adding 20 μl of firefly luciferase (2.5×10^−14 moles/reaction) in 150 mM HEPES pH 7.4 and 1 mg/ml gelatin, to 100 μl of reagent. Luminescence was normalized to the value integrated for no detergent. […]

Renilla luciferase = target: T1, Renilla luciferase (Renilla reniformis, UniProt P27652); test: Selective quench of Renilla luciferase luminescent reaction (Example I); settings: for Fold quench of Renilla luciferase: Luciferase Assay Reagent with 1% Tergitol NP-9, 200 μM coelenterazine hh methyl ether, 1 mM berberine hemisulfate or combinations, initial divided by residual luminescence
T1 sequence (P27652 1-311): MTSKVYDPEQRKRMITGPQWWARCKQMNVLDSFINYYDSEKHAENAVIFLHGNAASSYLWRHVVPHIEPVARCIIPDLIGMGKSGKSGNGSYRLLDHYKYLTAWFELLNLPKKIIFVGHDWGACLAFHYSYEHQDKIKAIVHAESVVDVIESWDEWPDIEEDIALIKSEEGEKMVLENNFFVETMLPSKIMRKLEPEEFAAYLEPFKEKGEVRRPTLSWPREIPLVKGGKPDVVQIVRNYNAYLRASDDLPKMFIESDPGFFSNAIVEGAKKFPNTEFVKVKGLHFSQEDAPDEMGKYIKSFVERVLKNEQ
Experimental: Each buffer was added to a vial of Luciferase Assay Substrate (pt. El 51, Promega Corporation) to make Luciferase Assay Reagent (LAR) plus the quenching agent(s). […] Luminescence was initiated by addition of 20 μl of enzyme solution to 100 μl of Renilla Luciferase Assay Reagent, and measured. […] Fold quench was calculated as the quotient of the initial Renilla luciferase luminescence divided by the residual Renilla luciferase luminescence.

[4] = system: horseradish peroxidase (HRP); test: Quenching light from horseradish peroxidase/luminol chemiluminescent reaction (Example III, FIG. 4)
Experimental: 20 μl of 0.044 mg/ml horseradish peroxidase (HRP), prepared in KPO4, pH 6.5, was added to 100 μl of 50 mM NaHCO3, 2 μM H2O2+/−100 μM berberine hemisulfate. […] 100 μl of 10 mM Luminol (Sigma) in 55 mM NaOH was then added to initiate the chemiluminescent reaction and the luminescence was measured on a luminometer. Luminescence was captured at various times after reaction initiation.

S/B Improvement [1]: 4500%
Molecule: Cc1cc(-c2ccc(N=Nc3cc(S(=O)(=O)[O-])c4ccccc4c3N)c(C)c2)ccc1N=Nc1cc(S(=O)(=O)[O-])c2ccccc2c1N.[Na+].[Na+] [Benzopurpurin 4B]

S/B Improvement (firefly luciferase [2]): 440%
Molecule: O=S(=O)([O-])c1cc(Nc2nc(Nc3ccccc3)nc(N(CCO)CCO)n2)ccc1/C=C/c1ccc(Nc2nc(Nc3ccccc3)nc(N(CCO)CCO)n2)cc1S(=O)(=O)[O-].[Na+].[Na+] [Fluorescence Brightener, Fluorescence Brightener 28]

Molecule: COc1c(Cc2ccccc2)nc2c(Cc3ccccc3)nc(-c3ccccc3)cn12 [coelenterazine hh methyl ether, 2,8-dibenzyl-3-methoxy-6-phenyl-imidazo[1,2-a]pyrazine]
effect on firefly luciferase luminescence (firefly luciferase [3]): not affected

Molecule: OCCN(CCO)c1nc(N2CCCCC2)c2nc(N(CCO)CCO)nc(N3CCCCC3)c2n1 [dipyridamole]
quench of the Renilla luciferase luminescent reaction (Renilla luciferase; at 1 mM): about 35 fold

Molecule: Tergitol NP-9
Fold quench of Renilla luciferase (Renilla luciferase): 86.67 fold

Molecule: berberine hemisulfate
Fold quench of Renilla luciferase (Renilla luciferase): 46 fold
effect on firefly luciferase luminescence (firefly luciferase [3]): not affected
effect on horseradish peroxidase chemiluminescence (FIG. 4) [4]: quenches
quench of horseradish peroxidase-dependent chemiluminescence ([4]; 100 μM berberine hemisulfate, luminol): over 500 fold
